The target in the assay is T1, GST-tagged KRAS-G12D (2-169) (Homo sapiens, UniProt P01116, G12D).
T1 construct: GST-tagged KRAS-G12D (2-169, Reaction Biology, MSC-11-539); purchased Reaction Biology MSC-11-539 (KRAS G12D); MSC-11-502 (SOS1cat)
In words: Nucleotide exchange assay (NEA), SOS-mediated, HTRF, KRAS G12D. The assay is classed as biochemical. As to conditions: IC50 extracted at 30 min. Put shortly:
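IC50 values come from 4-parameter fits at the 30 min time point of an SOS-driven exchange read by HTRF, normalised to DMSO (0%) and SOS-free blank (100%). Final reaction: 5 nM GST-KRAS-G12D (2-169), 20 nM SOScat, 150 nM fluorescent GTP-DY-647P1, after 1 h RT compound preincubation with KRAS and Tb-cryptate anti-GST.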
A general note: TR-FRET usually uses a lanthanide donor and a delayed reading to cut background.

pIC50: −log10 of the molar value.

The term pIC50 denotes the negative decadic logarithm of the IC50, by convention in mol/L. The low end stands for a high IC50, the high end for a low IC50.

T1 sequence (P01116 2-169 isoform P01116-2 G12D): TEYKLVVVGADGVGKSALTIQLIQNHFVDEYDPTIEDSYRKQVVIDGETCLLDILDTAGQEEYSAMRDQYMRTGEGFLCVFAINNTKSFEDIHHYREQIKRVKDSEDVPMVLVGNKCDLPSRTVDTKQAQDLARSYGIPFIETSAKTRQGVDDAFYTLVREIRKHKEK

Under “Table 4”, `CN(C)CC1(COc2nc(N3C[C@H]4CC[C@@H](C3)N4)c(C#N)c(N3CC4(CCc5sc(N)c(C#N)c54)C3)n2)CC1(F)F` (mixture of isomers) [Compound 74, 2-amino-1′-[5-cyano-6-(3,8-diazabicyclo[3.2.1]octan-3-yl)-2-[[1-[(dimethylamino)methyl]-2,2-difluoro-cyclopropyl]methoxy]pyrimidin-4-yl]spiro[5,6-dihydrocyclopenta[b]thiophene-4,3′-azetidine]-3-carbonitrile] gave a pIC50 of 7.00 to 8.00. As for `CN(C)C(=O)c1nn2c(c1Cl)CN(c1nc(OC[C@@]34CCCN3C[C@H](F)C4)nc(N3CC4(CCc5sc(N)c(C#N)c54)C3)c1C#N)CCC2` [Compound 2, 5-[6-(2-amino-3-cyano-spiro[5,6-dihydrocyclopenta[b]thiophene-4,3′-azetidine]-1′-yl)-5-cyano-2-[[(2R,8S)-2-fluoro-1,2,3,5,6,7-hexahydropyrrolizin-8-yl]methoxy]pyrimidin-4-yl]-3-chloro-N,N-dimethyl-4,6,7,8-tetrahydropyrazolo[1,5-a][1,4]diazepine-2-carboxamide], the pIC50 was greater than 8.00 (Table 2) and greater than 8.00 (Table 4). Regarding `CN(C)C(=O)c1nn2c(c1Cl)CN(c1nc(OC[C@@]34CCCN3C[C@H](F)C4)nc(N3CC4(CCCc5sc(N)c(C#N)c54)C3)c1C#N)CCC2` [Compound 3, 5-[6-(2-amino-3-cyano-spiro[6,7-dihydro-5H-benzothiophene-4,3′-azetidine]-1′-yl)-5-cyano-2-[[(2R,8S)-2-fluoro-1,2,3,5,6,7-hexahydropyrrolizin-8-yl]methoxy]pyrimidin-4-yl]-3-chloro-N,N-dimethyl-4,6,7,8-tetrahydropyrazolo[1,5-a][1,4]diazepine-2-carboxamide], the negative logarithm of the IC50 (pIC50) reads like this: (Table 2) greater than 8.00; (Table 4) greater than 8.00. Take `N#Cc1c(N2C[C@H]3CC[C@@H](C2)N3)nc(OCC2(CN3CCOCC3)CC2)nc1N1CC2(CCc3sc(N)c(C#N)c32)C1` [Compound 4, 2-amino-1′-[5-cyano-2-[[1-(morpholinomethyl)cyclopropyl]methoxy]-6-[(1R,5S)-3,8-diazabicyclo[3.2.1]octan-3-yl]pyrimidin-4-yl]spiro[5,6-dihydrocyclopenta[b]thiophene-4,3′-azetidine]-3-carbonitrile]: the negative logarithm of the IC50 (pIC50) (Table 4) was greater than 8.00. Regarding `CN(C)C(=O)c1nn2c(c1Cl)CN(c1nc(OCC3(CN4CCOCC4)CC3)nc(N3CC4(CCc5sc(N)c(C#N)c54)C3)c1C#N)CCC2` [Compound 5, 5-[6-(2-amino-3-cyano-spiro[5,6-dihydrocyclopenta[b]thiophene-4,3′-azetidine]-1′-yl)-5-cyano-2-[[1-(morpholinomethyl)cyclopropyl]methoxy]pyrimidin-4-yl]-3-chloro-N,N-dimethyl-4,6,7,8-tetrahydropyrazolo[1,5-a][1,4]diazepine-2-carboxamide], the pIC50 (Table 4) was greater than 8.00. The same measure, in the same setting: next, `N#Cc1c(N)sc2c1C1(CC2)CN(c2nc(OC[C@@]34CCCN3C[C@H](F)C4)nc(N3CCC[C@]4(C3)NC(=O)NC4=O)c2F)C1` [Compound 7, 2-amino-1′-[6-[(5R)-2,4-dioxo-1,3,9-triazaspiro[4.5]decan-9-yl]-5-fluoro-2-[[(2R,8S)-2-fluoro-1,2,3,5,6,7-hexahydropyrrolizin-8-yl]methoxy]pyrimidin-4-yl]spiro[5,6-dihydrocyclopenta[b]thiophene-4,3′-azetidine]-3-carbonitrile]: greater than 8.00; `CN(C)C(=O)c1cc2n(n1)CCCN(c1nc(OC[C@@]34CCCN3C[C@H](F)C4)nc(N3CC4(CCc5sc(N)c(C#N)c54)C3)c1C#N)C2` [Compound 8, 5-[6-(2-amino-3-cyano-spiro[5,6-dihydrocyclopenta[b]thiophene-4,3′-azetidine]-1′-yl)-5-cyano-2-[[(2R,8S)-2-fluoro-1,2,3,5,6,7-hexahydropyrrolizin-8-yl]methoxy]pyrimidin-4-yl]-N,N-dimethyl-4,6,7,8-tetrahydropyrazolo[1,5-a][1,4]diazepine-2-carboxamide]: greater than 8.00; `CN(C)C(=O)c1nn2c(c1Cl)CN(c1nc(OC[C@@]34CCCN3C[C@H](F)C4)nc(N3CC4(CCc5sc(N)c(C#N)c54)C3)c1F)CCC2` [Compound 9, 5-[6-(2-amino-3-cyano-spiro[5,6-dihydrocyclopenta[b]thiophene-4,3′-azetidine]-1′-yl)-5-fluoro-2-[[(2R,8S)-2-fluoro-1,2,3,5,6,7-hexahydropyrrolizin-8-yl]methoxy]pyrimidin-4-yl]-3-chloro-N,N-dimethyl-4,6,7,8-tetrahydropyrazolo[1,5-a][1,4]diazepine-2-carboxamide]: greater than 8.00. Still for that read-out and setting: next, `CN(C)C(=O)c1nn2c(c1Cl)CN(c1nc(OC[C@@]34CCCN3C[C@H](F)C4)nc(N3CC4(CCCCc5sc(N)c(C#N)c54)C3)c1C#N)CCC2` [Compound 10, 5-[6-(2-amino-3-cyano-spiro[5,6,7,8-tetrahydrocyclohepta[b]thiophene-4,3′-azetidine]-1′-yl)-5-cyano-2-[[(2R,8S)-2-fluoro-1,2,3,5,6,7-hexahydropyrrolizin-8-yl]methoxy]pyrimidin-4-yl]-3-chloro-N,N-dimethyl-4,6,7,8-tetrahydropyrazolo[1,5-a][1,4]diazepine-2-carboxamide]: greater than 8.00; `N#Cc1c(N2CC3(CCc4sc(N)c(C#N)c43)C2)nc(OC[C@@]23CCCN2C[C@H](F)C3)nc1N1CCC[C@]2(C1)NC(=O)NC2=O` [Compound 11, 2-amino-1′-[5-cyano-6-[(5R)-2,4-dioxo-1,3,9-triazaspiro[4.5]decan-9-yl]-2-[[(2R,8S)-2-fluoro-1,2,3,5,6,7-hexahydropyrrolizin-8-yl]methoxy]pyrimidin-4-yl]spiro[5,6-dihydrocyclopenta[b]thiophene-4,3′-azetidine]-3-carbonitrile]: greater than 8.00; `N#Cc1c(N2CCCC3(C2)NC(=O)NC3=O)nc(OC[C@@]23CCCN2C[C@H](F)C3)nc1N1CC2(CCc3sc(N)c(C#N)c32)C1` (stereo partly drawn) [Compound 12, 2-amino-1′-[5-cyano-6-(2,4-dioxo-1,3,9-triazaspiro[4.5]decan-9-yl)-2-[[(2R,8S)-2-fluoro-1,2,3,5,6,7-hexahydropyrrolizin-8-yl]methoxy]pyrimidin-4-yl]spiro[5,6-dihydrocyclopenta[b]thiophene-4,3′-azetidine]-3-carbonitrile]: greater than 8.00.

Regarding `CC(=O)c1nn2c(c1Cl)CN(c1nc(OC[C@@]34CCCN3C[C@H](F)C4)nc(N3CC4(CCc5sc(N)c(C#N)c54)C3)c1C#N)CCC2` [Compound 13, 1′-[6-(2-acetyl-3-chloro-4,6,7,8-tetrahydropyrazolo[1,5-a][1,4]diazepin-5-yl)-5-cyano-2-[[(2R,8S)-2-fluoro-1,2,3,5,6,7-hexahydropyrrolizin-8-yl]methoxy]pyrimidin-4-yl]-2-amino-spiro[5,6-dihydrocyclopenta[b]thiophene-4,3′-azetidine]-3-carbonitrile], under “Table 4”, the pIC50 is greater than 8.00. `CC1CC2(CN(c3nc(OC[C@@]45CCCN4C[C@H](F)C5)nc(N4CCCn5nc(C(=O)N(C)C)c(Cl)c5C4)c3C#N)C2)c2c1sc(N)c2C#N` (stereo partly drawn) [Compound 14, 5-[6-(2-amino-3-cyano-6-methyl-spiro[5,6-dihydrocyclopenta[b]thiophene-4,3′-azetidine]-1′-yl)-5-cyano-2-[[(2R,8S)-2-fluoro-1,2,3,5,6,7-hexahydropyrrolizin-8-yl]methoxy]pyrimidin-4-yl]-3-chloro-N,N-dimethyl-4,6,7,8-tetrahydropyrazolo[1,5-a][1,4]diazepine-2-carboxamide] gave a pIC50 (Table 4) greater than 8.00.

`N#Cc1c(N)sc2c1C1(CC2)CN(c2nc(OC[C@@]34CCCN3C[C@H](F)C4)nc(N3C[C@H]4CC[C@@H](C3)N4)c2F)C1` [Compound 15, 2-amino-1′-[6-(3,8-diazabicyclo[3.2.1]octan-3-yl)-5-fluoro-2-[[(2R,8S)-2-fluoro-1,2,3,5,6,7-hexahydropyrrolizin-8-yl]methoxy]pyrimidin-4-yl]spiro[5,6-dihydrocyclopenta[b]thiophene-4,3′-azetidine]-3-carbonitrile]: the negative logarithm of the IC50 (pIC50) (Table 4) is greater than 8.00.

As for `Cc1noc(-c2cc3n(n2)CCCN(c2nc(OC[C@@]45CCCN4C[C@H](F)C5)nc(N4CC5(CCc6sc(N)c(C#N)c65)C4)c2C#N)C3)n1` [Compound 16, 2-amino-1′-[5-cyano-6-[2-(3-methyl-1,2,4-oxadiazol-5-yl)-4,6,7,8-tetrahydropyrazolo[1,5-a][1,4]diazepin-5-yl]-2-[[(2R,8S)-2-fluoro-1,2,3,5,6,7-hexahydropyrrolizin-8-yl]methoxy]pyrimidin-4-yl]spiro[5,6-dihydrocyclopenta[b]thiophene-4,3′-azetidine]-3-carbonitrile], the negative-log IC50 (pIC50) (Table 4) was greater than 8.00.

Under “Table 4”, `Cc1noc(-c2nn3c(c2Cl)CN(c2nc(OC[C@@]45CCCN4C[C@H](F)C5)nc(N4CC5(CCc6sc(N)c(C#N)c65)C4)c2C#N)CCC3)n1` [Compound 17, 2-amino-1′-[6-[3-chloro-2-(3-methyl-1,2,4-oxadiazol-5-yl)-4,6,7,8-tetrahydropyrazolo[1,5-a][1,4]diazepin-5-yl]-5-cyano-2-[[(2R,8S)-2-fluoro-1,2,3,5,6,7-hexahydropyrrolizin-8-yl]methoxy]pyrimidin-4-yl]spiro[5,6-dihydrocyclopenta[b]thiophene-4,3′-azetidine]-3-carbonitrile] gave a pIC50 greater than 8.00. `CN(C)C(=O)c1nn2c(c1Cl)CN(c1nc(OCC34CCCN3CCC4)nc(N3CC4(CCc5sc(N)c(C#N)c54)C3)c1C#N)CCC2` [Compound 18, 5-[6-(2-amino-3-cyano-spiro[5,6-dihydrocyclopenta[b]thiophene-4,3′-azetidine]-1′-yl)-5-cyano-2-(1,2,3,5,6,7-hexahydropyrrolizin-8-ylmethoxy)pyrimidin-4-yl]-3-chloro-N,N-dimethyl-4,6,7,8-tetrahydropyrazolo[1,5-a][1,4]diazepine-2-carboxamide] had a negative logarithm of the IC50 (pIC50) (Table 4) greater than 8.00.

These data come from patent publication US12145947B2, “Pyrimidine based modulators and uses thereof” (Quanta Therapeutics, Inc., priority 2022, dated 2024).
